Consider 5 molecules from ChEMBL document CHEMBL1151344, “Potential anticancer agents. XVI. Isolation of bicyclofarnesane sesquiterpenoids from Capsicodendron dinisii” (1980).

SMILES strings stand for the structures. Converted amounts (≈) assume the structure as drawn. The source made the active and inactive calls. The calls are words filed in the database; no cut-off is given here.

Test [1] concerns P388. The experiment in a line: Cytotoxicity against mouse P388 cells. It is filed as functional.
The next test concerns 9KB. The experiment in a line: Cytotoxicity against human 9KB cells. It is filed as functional, cell-based.
For test [2], the system named is P388. The experiment in a line: In vivo cytotoxicity against mouse P388 cells. It is filed as functional, organism-based.
The nature of test [3]: Cytotoxicity against human 9KB5 cells. The conditions noted are these: read-out: ED50 (the source's name). It is filed as functional.

For the molecule `CC(=O)O[C@@H]1[C@@H](O)C2=C(C(=O)OC2)[C@@]2(C)CCCC(C)(C)[C@H]12`, the outcome with P388 [1], in the test with 9KB and with P388 [2] was inactive.

Consider `CC(=O)O[C@@H]1C=C(C=O)[C@](O)(C=O)[C@@]2(C)CCCC(C)(C)[C@H]12` [CINNAMODIAL], for which the EC50 in the test on P388 [1] (read-out: ED50 (the source's name)) turned out to be 2.2 µg/mL (≈ 7.13 µM). For the same molecule, the outcome with P388 [2] was inactive.

For the molecule `CC(=O)O[C@@H]1CC2=C(C(=O)OC2)[C@@]2(C)CCCC(C)(C)[C@H]12`, the result in the test with P388 [1], in the test with 9KB and in the test with P388 [2] was inactive.

On to `CC1(C)CCC[C@]2(C)C3=C(COC3=O)[C@H](O)C[C@@H]12`, for which the result in the test on P388 [1], with 9KB and with P388 [2] was inactive.

With `CC(=O)O[C@@H]1C=C2C(=O)OC[C@]2(O)[C@@]2(C)CCCC(C)(C)[C@H]12` [CINNAMOSMOLIDE], the result with P388 [1] and in the test on P388 [2] was inactive. In addition, in test [3], the EC50 came out at 1.2 µg/mL (≈ 3.89 µM).
